Data from patent publication US12606571B2, “Macrocyclic compounds and uses thereof” (TURNING POINT THERAPEUTICS, INC., priority 2017, dated 2026).
pIC50: −log10 of the molar value. Like-named read-outs stand apart in the source and are kept apart here.

Tests used:
[1] = test system: MKN-45 cells; experiment: Scratch wound healing assay, MKN-45; format: cell-based; settings: 36-48 hours treatment
Experimental: (§1) MKN-45 or HCC827 cells were seeded in 24-well plate. After 12-24 hours, confluent cell monolayers were gently scraped with a sterile pipette tip to form a scratch. The plates were washed with fresh medium, and the cells were incubated with medium alone or medium containing various concentration of compounds. After 36-48 hours, the plates were examined and recorded by an EVOS FL microscopy (Life Technology) to monitor rescaling of the cell monolayer.

[2] = test system: MC38 syngeneic tumors; experiment: Combination efficacy study with PD-1 antibody in MC38 syngeneic model; format: in vivo, mouse
Experimental: (§2) C57BL/6J female mice (6 weeks) were purchased from the Jackson Laboratory, and maintained in accordance with the guidelines for the care and use of laboratory animals. Half million MC38 cancer cells in 100 μL serum-free medium were implanted subcutaneously in the right flank region of the mouse. Tumor size and body weight were measured on designated days. Tumor size was measured with an electronic caliper and tumor volume was calculated as the product of length*width^2*0.5. […] Vehicle control, Compound 5, PD-1 antibody or Compound 5 plus PD-1 antibody were administered orally (BID) at determined doses.
Anti-tumor effects of Compound 5 combined with PD-1 antibody on MC38 syngeneic tumors was analyzed by tumor volume. The average tumor volume of vehicle control group (G1) on day 20 was 1938.58±729.41, Compound 5 treated group (G2) was 1220.03±521.39 mm3, PD-1 antibody treatment group was 821.24±767.16, and Compound 5 plus PD-1 antibody treatment was 515.63±350.47.

[3] = test system: M-NFS-60 cells; experiment: M-NFS-60 cell proliferation at varied CSF-1; format: cell-based; settings: Mus musculus
Experimental: Two thousand cells per well were seeded in 384 well white plate for 24 hrs, and then treated with compounds for 72 hours (37° C., 5% CO2). Cell proliferation was measured using CellTiter-Glo luciferase-based ATP detection assay (Promega) following the manufacturer's protocol. IC50 determinations were performed using GraphPad Prism software (GraphPad, Inc., San Diego, CA).
The anti-cell proliferation activities against MET and CSF1R driven cell lines were conducted with MKN-45, SNU-5, Ba/F3 TEL-CSF1R cells, and M-NFS-60 respectively.

[4] = test system: HCC827 cells; experiment: Apoptosis of HCC827 cells; format: cell-based, human; settings: 48 hour incubation, combination with AZD9291
[5] = biological target: T1, SRC (Homo sapiens, UniProt P12931); experiment: Biochemical kinase assay (Reaction Biology), SRC; settings: 10 μM ATP; read-out: Enzymatic Kinase SRC IC50
T1 construct: purchased Reaction Biology Corporation (assay service; enzyme from the CRO's panel)
T1 sequence (P12931 whole entry): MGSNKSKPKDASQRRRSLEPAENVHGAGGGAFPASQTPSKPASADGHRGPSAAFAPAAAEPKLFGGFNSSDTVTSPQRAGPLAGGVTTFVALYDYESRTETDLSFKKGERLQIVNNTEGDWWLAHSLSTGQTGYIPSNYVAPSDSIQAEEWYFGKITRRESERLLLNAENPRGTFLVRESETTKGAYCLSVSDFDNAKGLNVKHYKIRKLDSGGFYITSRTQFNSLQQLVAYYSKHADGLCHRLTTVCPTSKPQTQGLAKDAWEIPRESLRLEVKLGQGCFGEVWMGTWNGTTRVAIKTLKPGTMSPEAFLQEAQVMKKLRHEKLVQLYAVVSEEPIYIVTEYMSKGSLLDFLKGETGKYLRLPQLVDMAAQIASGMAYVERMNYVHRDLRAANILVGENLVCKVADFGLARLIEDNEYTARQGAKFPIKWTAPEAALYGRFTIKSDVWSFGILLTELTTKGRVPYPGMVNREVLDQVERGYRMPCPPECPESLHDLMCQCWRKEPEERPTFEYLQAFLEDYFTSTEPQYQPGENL
Experimental: The biochemical kinase assay was performed at Reaction Biology Corporation (www.reactionbiology.com, Malvern, PA) following the procedures described in the reference (Anastassiadis T, et al Nat Biotechnol. 2011, 29, 1039). Specific kinase/substrate pairs along with required cofactors were prepared in reaction buffer; 20 mM Hepes pH 7.5, 10 mM MgCl2,1 mM EGTA, 0.02% Brij35, 0.02 mg/ml BSA, 0.1 mM Na3VO4, 2 mM DTT, 1% DMSO (for specific details of individual kinase reaction components see Supplementary Table 2). Compounds were delivered into the reaction, followed ˜20 minutes later by addition of a mixture of ATP (Sigma, St. Louis MO) and ^33P ATP (Perkin Elmer, Waltham MA) to a final concentration of 10 μM. Reactions were carried out at room temperature for 120 min, followed by spotting of the reactions onto P81 ion exchange filter paper (Whatman Inc., Piscataway, NJ). Unbound phosphate was removed by extensive washing of filters in 0.75% phosphoric acid. […] IC50 values and curve fits were obtained using Prism (GraphPad Software).
The enzymatic kinase inhibition activities at 10 μM ATP concentration were determined at Reaction Biology.

[6] = test system: MET phosphorylation and downstream signaling in SNU-5 cells; experiment: Immunoblotting for cellular kinase phosphorylation, SNU-5; format: cell-based, human; settings: 4 hour incubation
Experimental: Half a million cells per well were seeded in 24 well plate for 24 hrs, and then treated with compounds for 4 hours. Cells were collected after treatment and lysed in RIPA buffer (50 mM Tris, pH 7.4, 150 mM NaCl, 1% NP-40, 0.5% Deoxycholate, 0.1% SDS) supplemented with 10 mM EDTA, 1× Halt protease and phosphatase inhibitors (Thermo Scientific). […] Membranes were incubated with chemiluminescent substrate for 5 min at room temperature (SuperSignal West Femto, Thermo Scientific). The chemiluminescent images were acquired with a C-DiGit Imaging System (LI-COR Biosciences). The relative density of the chemiluminescent bands were quantified via Image Studio Digits from LICOR. The half inhibitory concentration (IC50) value is calculated using non-linear regression analysis through GraphPad Prism software (GraphPad, Inc., San Diego, CA).

[7] = test system: HCC827 cells; experiment: Scratch wound healing assay, HCC827; format: cell-based, human; settings: 36-48 hours treatment
Experimental: as §1

[8] = test system: MC38 syngeneic tumors; experiment: Subcutaneous MC38 syngeneic mouse tumor model, tumor volume and body weight; format: in vivo
Experimental: as §2
Anti-tumor effects of Compound 5 on MC38 syngeneic tumors was analyzed by tumor volume. The average tumor volume of vehicle control group (G1) on day 7 was 696.3±299.7, while Compound 5 treated group (G2) was 473.5±170.4 mm^3. On day 11, the average tumor volume of G1 and G2 were 1142.6±290.0 and 610.4±151.8mm^3, respectively.

For `CCN1Cc2c(ccc(F)c2C#N)O[C@@H](C)CNC(=O)c2c(N)nn3ccc1nc23` [Compound 5, (7S)-3-amino-14-ethyl-11-fluoro-7-methyl-4-oxo-4,5,6,7,13,14-hexahydro-1,15-ethenopyrazolo[4,3-f][1,4,8,10]benzoxatriazacyclotridecine-12-carbonitrile], the “cell migration of MKN-45 cells, wound healing” value [1] was “inhibited”, the average tumor volume ([2]; day 20) was 1220.03±521.39 mm3 and the “body weight and overt abnormality” value ([2]; mouse, in vivo) was “No body weight loss and overt abnormality”. It also gave a pIC50 ([3]; read-out: M-NFS-60 IC50, CSF-1 0 ng/mL) of 9.52, a pIC50 ([3]; read-out: M-NFS-60 IC50, CSF-1 0.3 ng/mL) of 8.52 and a pIC50 ([3]; read-out: M-NFS-60 IC50, CSF-1 1 ng/mL) of 7.94. For the same molecule, the pIC50 ([3]; read-out: M-NFS-60 IC50, CSF-1 3 ng/mL) was 7.11, the pIC50 ([3]; read-out: M-NFS-60 IC50, CSF-1 10 ng/mL) was 7.08 and the pIC50 ([3]; read-out: M-NFS-60 IC50, CSF-1 30 ng/mL) was 6.74. The pIC50 ([3]; read-out: M-NFS-60 IC50, CSF-1 100 ng/mL) was 6.76, the “apoptosis of HCC827 cells” value [4] was “synergized with AZD9291” and the pIC50 [5] was 9.92. For the same molecule, the “MET phosphorylation (gel)” value [6] was “inhibited”, the “cell migration of HCC827 cells, wound healing” value [7] was “inhibited” and the “body weight and overt abnormality” value ([8]; 15 mg/kg BID for 7 or 11 days) was “No body weight loss and overt abnormality”. It also gave an average tumor volume ([8]; day 7, 15 mg/kg BID) of 473.5±170.4 mm^3 and an average tumor volume ([8]; day 11, 15 mg/kg BID) of 610.4±151.8 mm^3.
